Data as given in PMC5218480 (PLoS ONE, 2017).

Test system: MV-4-11 cells
Assay: Gene expression microarray analysis (Affymetrix PrimeView) and GSEA
Assay type: cell-based, human
Design: RFU PODN (11730768_x_at) / Fold change /veh PODN (11730768_x_at) / RFU LINC00158 (11744669_a_at) / Fold change /veh LINC00158 (11744669_a_at) / RFU DUSP10 (11751237_a_at) / Fold change /veh DUSP10 (11751237_a_at) / RFU ID3 (11757404_x_at) / Fold change /veh ID3 (11757404_x_at) / RFU PLEKHG5 (11737974_s_at) / Fold change /veh PLEKHG5 (11737974_s_at) / RFU LRRC4B (11730491_at) / Fold change /veh LRRC4B (11730491_at) / RFU GIMAP4 (11747438_a_at) / Fold change /veh GIMAP4 (11747438_a_at) / RFU KRT8 (11758183_x_at) / Fold change /veh KRT8 (11758183_x_at) / RFU CNN1 (11734310_a_at) / Fold change /veh CNN1 (11734310_a_at) / RFU VPS37D (11726825_at) / Fold change /veh VPS37D (11726825_at) / RFU C10orf10 (11716522_x_at) / Fold change /veh C10orf10 (11716522_x_at) / RFU KIR2DL2 /// KIR2DL4 /// KIR2DL5A /// KIR2DL5B /// KIR2DS1 /// KIR2DS2 /// KIR2DS3 /// KIR2DS4 /// KIR3DL3 /// KIR3DL3 /// KIR3DS1 (11738374_at) / Fold change /veh KIR2DL2 /// KIR2DL4 /// KIR2DL5A /// KIR2DL5B /// KIR2DS1 /// KIR2DS2 /// KIR2DS3 /// KIR2DS4 /// KIR3DL3 /// KIR3DL3 /// KIR3DS1 (11738374_at) / RFU C1QL1 (11718748_at) / Fold change /veh C1QL1 (11718748_at) / RFU TMPRSS4 (11747572_a_at) / Fold change /veh TMPRSS4 (11747572_a_at) / RFU HAMP (11756126_x_at) / Fold change /veh HAMP (11756126_x_at) / RFU RNFT2 (11725882_a_at) / Fold change /veh RNFT2 (11725882_a_at) / RFU NR4A2 (11747474_a_at) / Fold change /veh NR4A2 (11747474_a_at) / RFU ABCC12 (11746883_a_at) / Fold change /veh ABCC12 (11746883_a_at) / RFU TMEM136 (11760407_x_at) / Fold change /veh TMEM136 (11760407_x_at) / RFU CLDN22 /// WWC2 (11732394_at) / Fold change /veh CLDN22 /// WWC2 (11732394_at) / RFU HLA-DPB1 (11760878_x_at) / Fold change /veh HLA-DPB1 (11760878_x_at) / RFU SPINT1 (11716480_a_at) / Fold change /veh SPINT1 (11716480_a_at) / RFU GAP43 (11754022_s_at) / Fold change /veh GAP43 (11754022_s_at) / RFU A4GNT (11735810_at) / Fold change /veh A4GNT (11735810_at) / RFU PRB3 (11715151_x_at) / Fold change /veh PRB3 (11715151_x_at) / RFU TUBB4B (11761932_at) / Fold change /veh TUBB4B (11761932_at) / RFU CAPN14 (11732068_a_at) / Fold change /veh CAPN14 (11732068_a_at) / RFU TMCC2 (11721928_a_at) / Fold change /veh TMCC2 (11721928_a_at) / RFU IRGQ (11745062_a_at) / Fold change /veh IRGQ (11745062_a_at) / RFU FAM174B (11720279_a_at) / Fold change /veh FAM174B (11720279_a_at) / RFU TMPRSS4 (11748680_a_at) / Fold change /veh TMPRSS4 (11748680_a_at) / RFU FAM212B (11763350_a_at) / Fold change /veh FAM212B (11763350_a_at) / RFU PLEKHG5 (11743358_a_at) / Fold change /veh PLEKHG5 (11743358_a_at) / RFU ZSCAN30 (11745921_a_at) / Fold change /veh ZSCAN30 (11745921_a_at) / RFU CMKLR1 (11741424_a_at) / Fold change /veh CMKLR1 (11741424_a_at) / RFU LOC101060620 /// MAPK8IP1 (11723275_at) / Fold change /veh LOC101060620 /// MAPK8IP1 (11723275_at) / RFU SPTSSB (11747773_x_at) / Fold change /veh SPTSSB (11747773_x_at) / RFU PRSS12 (11739890_at) / Fold change /veh PRSS12 (11739890_at) / RFU BIN1 (11741810_x_at) / Fold change /veh BIN1 (11741810_x_at) / RFU WNT11 (11732464_a_at) / Fold change /veh WNT11 (11732464_a_at) / RFU C10orf10 (11716521_a_at) / Fold change /veh C10orf10 (11716521_a_at) / RFU C5orf56 (11738089_at) / Fold change /veh C5orf56 (11738089_at) / RFU CYB561 (11721691_x_at) / Fold change /veh CYB561 (11721691_x_at) / RFU ANKRD19P (11752326_a_at) / Fold change /veh ANKRD19P (11752326_a_at) / RFU OR2T12 /// OR2T33 /// OR2T8 (11738714_s_at) / Fold change /veh OR2T12 /// OR2T33 /// OR2T8 (11738714_s_at) / RFU VCAN (11748164_a_at) / Fold change /veh VCAN (11748164_a_at) / RFU JSRP1 (11732532_at) / Fold change /veh JSRP1 (11732532_at) / RFU KRTAP10-11 (11738290_x_at) / Fold change /veh KRTAP10-11 (11738290_x_at) / RFU MYO3A (11730013_a_at) / Fold change /veh MYO3A (11730013_a_at) / RFU EBF3 (11725865_a_at) / Fold change /veh EBF3 (11725865_a_at) / RFU CAMK2N1 (11719241_x_at) / Fold change /veh CAMK2N1 (11719241_x_at) / RFU C5orf56 (11738088_a_at) / Fold change /veh C5orf56 (11738088_a_at) / RFU OLFML3 (11715873_a_at) / Fold change /veh OLFML3 (11715873_a_at) / RFU LOC100653217 /// NTM (11731650_a_at) / Fold change /veh LOC100653217 /// NTM (11731650_a_at) / RFU MAPK11 (11762145_a_at) / Fold change /veh MAPK11 (11762145_a_at) / RFU FIZ1 (11724087_x_at) / Fold change /veh FIZ1 (11724087_x_at) / RFU OASL (11726364_x_at) / Fold change /veh OASL (11726364_x_at) / RFU SOX15 (11748057_x_at) / Fold change /veh SOX15 (11748057_x_at) / RFU CD79A (11719716_a_at) / Fold change /veh CD79A (11719716_a_at) / RFU HIST1H1D (11736915_at) / Fold change /veh HIST1H1D (11736915_at) / RFU CASKIN2 (11723855_a_at) / Fold change /veh CASKIN2 (11723855_a_at) / RFU LOC730098 (11760151_x_at) / Fold change /veh LOC730098 (11760151_x_at) / RFU OR4N2 (11742367_at) / Fold change /veh OR4N2 (11742367_at) / RFU PRRT2 (11749266_a_at) / Fold change /veh PRRT2 (11749266_a_at) / RFU SNX32 (11753110_a_at) / Fold change /veh SNX32 (11753110_a_at) / RFU CDHR5 (11726645_a_at) / Fold change /veh CDHR5 (11726645_a_at) / RFU RCAN1 (11760418_a_at) / Fold change /veh RCAN1 (11760418_a_at) / RFU FAM167A (11723789_a_at) / Fold change /veh FAM167A (11723789_a_at) / RFU FAM26E (11764081_at) / Fold change /veh FAM26E (11764081_at) / RFU ISYNA1 (11749810_s_at) / Fold change /veh ISYNA1 (11749810_s_at) / RFU ACY1 (11761880_at) / Fold change /veh ACY1 (11761880_at) / RFU 11764098_at / Fold change /veh 11764098_at / RFU SAMD14 (11745864_x_at) / Fold change /veh SAMD14 (11745864_x_at) / RFU NPB (11741838_a_at) / Fold change /veh NPB (11741838_a_at) / RFU TMPRSS6 (11731388_a_at) / Fold change /veh TMPRSS6 (11731388_a_at) / RFU KRTAP10-2 (11738614_at) / Fold change /veh KRTAP10-2 (11738614_at) / RFU ARHGAP8 /// PRR5-ARHGAP8 (11727945_x_at) / Fold change /veh ARHGAP8 /// PRR5-ARHGAP8 (11727945_x_at) / RFU KRTAP5-7 /// NADSYN1 (11734609_at) / Fold change /veh KRTAP5-7 /// NADSYN1 (11734609_at) / RFU RASL12 (11751679_a_at) / Fold change /veh RASL12 (11751679_a_at) / RFU CDKN2B (11736163_a_at) / Fold change /veh CDKN2B (11736163_a_at) / RFU PRF1 (11729649_at) / Fold change /veh PRF1 (11729649_at) / RFU, ZNF638 /// ZNF638-IT1 / Fold change vs veh, ZNF638 /// ZNF638-IT1 / RFU, PANK3 / Fold change vs veh, PANK3 / RFU, SH3YL1 / Fold change vs veh, SH3YL1 / RFU, ZEB2 / Fold change vs veh, ZEB2 / RFU, NRIP1 / Fold change vs veh, NRIP1 / RFU, PTTG1IP / Fold change vs veh, PTTG1IP / RFU, CAPN2 / Fold change vs veh, CAPN2 / RFU, MED14 / Fold change vs veh, MED14 / RFU, SNORA58 / Fold change vs veh, SNORA58 / RFU, C1orf63 / Fold change vs veh, C1orf63 / RFU, LRRFIP1 / Fold change vs veh, LRRFIP1 / RFU, NDUFAF7 / Fold change vs veh, NDUFAF7 / RFU, SLC12A2 / Fold change vs veh, SLC12A2 / RFU, IBTK / Fold change vs veh, IBTK / RFU, ESF1 / Fold change vs veh, ESF1 / Fold change vs veh, TMEM50B / RFU, TAOK1 / Fold change vs veh, TAOK1 / RFU, ACBD3 / Fold change vs veh, ACBD3 / RFU, TMA16 / Fold change vs veh, TMA16 / RFU, RWDD3 / Fold change vs veh, RWDD3 / RFU, BCAT1 / Fold change vs veh, BCAT1 / RFU, EDEM3 / Fold change vs veh, EDEM3 / RFU, TMEM33 / Fold change vs veh, TMEM33 / RFU, WDR75 / Fold change vs veh, WDR75 / RFU, AHCTF1 / Fold change vs veh, AHCTF1 / RFU, TFRC / Fold change vs veh, TFRC / RFU, ZDHHC17 / Fold change vs veh, ZDHHC17 / RFU, NOM1 / Fold change vs veh, NOM1 / RFU, ARL8B / Fold change vs veh, ARL8B / RFU, ZBTB11 / Fold change vs veh, ZBTB11 / RFU, TAMM41 / Fold change vs veh, TAMM41 / RFU, KIAA1704 /// LOC100996395 / Fold change vs veh, KIAA1704 /// LOC100996395 / RFU, ING1 / Fold change vs veh, ING1 / RFU, TRMT61B / Fold change vs veh, TRMT61B / RFU, FUBP3 / Fold change vs veh, FUBP3 / RFU, TP53 / Fold change vs veh, TP53 / RFU, TNKS2 / Fold change vs veh, TNKS2 / RFU, ZFP14 / Fold change vs veh, ZFP14 / RFU, ACTR2 / Fold change vs veh, ACTR2 / RFU, PPP3R1 / Fold change vs veh, PPP3R1 / RFU, PIK3R1 / Fold change vs veh, PIK3R1 / RFU, HNRNPA1 / Fold change vs veh, HNRNPA1 / RFU, RNF170 / Fold change vs veh, RNF170 / RFU, ZNF28 / Fold change vs veh, ZNF28 / RFU, RNGTT / Fold change vs veh, RNGTT / RFU, OGT / Fold change vs veh, OGT / RFU, BRD1 / Fold change vs veh, BRD1 / RFU, MARS / Fold change vs veh, MARS / RFU, ZNF655 / Fold change vs veh, ZNF655 / RFU, FAHD1 / Fold change vs veh, FAHD1 / RFU, BDP1 / Fold change vs veh, BDP1 / RFU, LRRCC1 / Fold change vs veh, LRRCC1 / RFU, ARID1A / Fold change vs veh, ARID1A / RFU, ZNF146 / Fold change vs veh, ZNF146 / RFU, ZNF330 / Fold change vs veh, ZNF330 / RFU, GPN3 / Fold change vs veh, GPN3 / RFU, C9orf123 / Fold change vs veh, C9orf123 / RFU, N4BP2L2 / Fold change vs veh, N4BP2L2 / RFU, ARFIP1 / Fold change vs veh, ARFIP1 / RFU, FAM179B / Fold change vs veh, FAM179B / RFU, BCL10 / Fold change vs veh, BCL10 / RFU, UHRF1BP1L / Fold change vs veh, UHRF1BP1L / RFU, BET1 / Fold change vs veh, BET1 / RFU, CNOT2 / Fold change vs veh, CNOT2 / RFU, ZNF268 / Fold change vs veh, ZNF268 / Fold change vs veh, ZNF507 / RFU, DGCR2 / Fold change vs veh, DGCR2 / RFU, WDSUB1 / Fold change vs veh, WDSUB1 / Fold change vs veh, HSP90B1 /// MIR3652 / RFU, ADSS / Fold change vs veh, ADSS / RFU, GK / Fold change vs veh, GK / RFU, ZNF148 / Fold change vs veh, ZNF148 / RFU, TAF9 / Fold change vs veh, TAF9 / RFU, SLC1A5 / Fold change vs veh, SLC1A5 / RFU, SLMO2 / Fold change vs veh, SLMO2 / RFU, ABCC4 / Fold change vs veh, ABCC4 / RFU, LOC101060439 /// RAP1B / Fold change vs veh, LOC101060439 /// RAP1B / RFU, RFX7 / Fold change vs veh, RFX7 / RFU, GTPBP10 / Fold change vs veh, GTPBP10 / RFU, CNEP1R1 / Fold change vs veh, CNEP1R1 / RFU, BIVM-ERCC5 /// ERCC5 / Fold change vs veh, BIVM-ERCC5 /// ERCC5 / RFU, ILF3 / Fold change vs veh, ILF3 / RFU 11762660_at / Fold change /veh 11762660_at / RFU VCAN (11757783_s_at) / Fold change /veh VCAN (11757783_s_at) / RFU DDX43 (11728927_at) / Fold change /veh DDX43 (11728927_at) / RFU KRT8 (11758188_x_at) / Fold change /veh KRT8 (11758188_x_at) / RFU NKD1 (11759106_at) / Fold change /veh NKD1 (11759106_at) / RFU SRD5A1 (11742802_a_at) / Fold change /veh SRD5A1 (11742802_a_at) / RFU TPSAB1 /// TPSB2 (11721975_s_at) / Fold change /veh TPSAB1 /// TPSB2 (11721975_s_at) / RFU GSTM3 (11746129_a_at) / Fold change /veh GSTM3 (11746129_a_at) / RFU IL23R (11737362_x_at) / Fold change /veh IL23R (11737362_x_at) / RFU TMEM51 (11727254_a_at) / Fold change /veh TMEM51 (11727254_a_at) / RFU PIWIL2 (11732686_x_at) / Fold change /veh PIWIL2 (11732686_x_at) / RFU ORM1 (11744905_x_at) / Fold change /veh ORM1 (11744905_x_at) / RFU CCDC152 (11743942_at) / Fold change /veh CCDC152 (11743942_at) / RFU ECM1 (11717891_a_at) / Fold change /veh ECM1 (11717891_a_at) / RFU IL23R (11748794_a_at) / Fold change /veh IL23R (11748794_a_at) / RFU TNFAIP8L3 (11732012_x_at) / Fold change /veh TNFAIP8L3 (11732012_x_at) / RFU MBOAT4 (11741988_at) / Fold change /veh MBOAT4 (11741988_at) / RFU 11764193_at / Fold change /veh 11764193_at / RFU TMEM53 (11763286_at) / Fold change /veh TMEM53 (11763286_at) / RFU MAGEB2 (11727129_at) / Fold change /veh MAGEB2 (11727129_at) / RFU TMEM200A (11744735_a_at) / Fold change /veh TMEM200A (11744735_a_at) / RFU CCDC152 (11751479_a_at) / Fold change /veh CCDC152 (11751479_a_at) / RFU FAM211A (11726209_a_at) / Fold change /veh FAM211A (11726209_a_at) / RFU RGS16 (11746705_a_at) / Fold change /veh RGS16 (11746705_a_at) / RFU VCAN (11755009_s_at) / Fold change /veh VCAN (11755009_s_at) / RFU RHOB (11743442_s_at) / Fold change /veh RHOB (11743442_s_at) / RFU RGS16 (11720943_a_at) / Fold change /veh RGS16 (11720943_a_at) / RFU RGS16 (11720944_at) / Fold change /veh RGS16 (11720944_at) / RFU, VPS4B / Fold change vs veh, VPS4B / RFU, CREB1 / Fold change vs veh, CREB1 / RFU, DNAJC13 / Fold change vs veh, DNAJC13 / RFU, GNAQ / Fold change vs veh, GNAQ / RFU, CDK5R1 / Fold change vs veh, CDK5R1 / RFU, ZRANB3 / Fold change vs veh, ZRANB3 / RFU, CUL4A / Fold change vs veh, CUL4A / RFU, CCNY / Fold change vs veh, CCNY / RFU, UFL1 / Fold change vs veh, UFL1 / RFU, COG3 / Fold change vs veh, COG3 / RFU, DIAPH2 / Fold change vs veh, DIAPH2 / RFU, SKA2 / Fold change vs veh, SKA2 / RFU, AFF3 / Fold change vs veh, AFF3 / RFU, LMF1 / Fold change vs veh, LMF1 / RFU, IPO11 / Fold change vs veh, IPO11 / RFU, DFFB / Fold change vs veh, DFFB / RFU, FOXP1 / Fold change vs veh, FOXP1 / RFU, CARD8 / Fold change vs veh, CARD8 / RFU, STRN3 / Fold change vs veh, STRN3 / RFU, ADK / Fold change vs veh, ADK / RFU, RASSF2 / Fold change vs veh, RASSF2 / RFU, WIPF1 / Fold change vs veh, WIPF1 / RFU, LARP1B / Fold change vs veh, LARP1B / RFU, RASA1 / Fold change vs veh, RASA1 / RFU, RB1 / Fold change vs veh, RB1 / RFU, PPFIA1 / Fold change vs veh, PPFIA1 / RFU, MAT2A / Fold change vs veh, MAT2A / RFU, CCT5 / Fold change vs veh, CCT5 / RFU, WDR92 / Fold change vs veh, WDR92 / RFU, CUX1 / Fold change vs veh, CUX1 / RFU, TTC7A / Fold change vs veh, TTC7A / RFU, TMEM135 / Fold change vs veh, TMEM135 / RFU, DEPTOR / Fold change vs veh, DEPTOR / RFU, CPM / Fold change vs veh, CPM / RFU, DNAJB6 / Fold change vs veh, DNAJB6 / RFU, CACNA2D3 / Fold change vs veh, CACNA2D3 / RFU, DTX4 / Fold change vs veh, DTX4 / RFU, TFCP2 / Fold change vs veh, TFCP2 / RFU, GMCL1 /// GMCL1P1 / Fold change vs veh, GMCL1 /// GMCL1P1 / RFU, AEBP2 / Fold change vs veh, AEBP2 / RFU, SNHG1 /// SNORD22 /// SNORD25 /// SNORD26 /// SNORD27 /// SNORD28 /// SNORD29 /// SNORD31 / Fold change vs veh, SNHG1 /// SNORD22 /// SNORD25 /// SNORD26 /// SNORD27 /// SNORD28 /// SNORD29 /// SNORD31 / Fold change (Aza/veh), C12orf56 (ProbeSet 11735607_a_at) / Fold change (ACY-1035/veh), C12orf56 (ProbeSet 11735607_a_at) / Fold change (Aza/veh), FGFR1OP (ProbeSet 11751329_s_at) / Fold change (ACY-1035/veh), FGFR1OP (ProbeSet 11751329_s_at) / Fold change (Aza/veh), VPS36 (ProbeSet 11739960_a_at) / Fold change (ACY-1035/veh), VPS36 (ProbeSet 11739960_a_at) / RFU SYPL1 (11715823_x_at) / Fold change /veh SYPL1 (11715823_x_at) / RFU IGFBP7 (11715501_s_at) / Fold change /veh IGFBP7 (11715501_s_at) / RFU REEP3 (11722064_at) / Fold change /veh REEP3 (11722064_at) / RFU IGLL1 (11728026_x_at) / Fold change /veh IGLL1 (11728026_x_at): dose or concentration left out as unconfirmed
Conditions: MV-4-11 cells, 48 hours

In the case of `Nc1ccc(-c2cccs2)cc1NC(=O)c1ccc2c(c1)cc(C1CC1)n2CCN1CCOCC1` [ACY-1035], the “Fold change /veh PLEKHG5 (11743358_a_at)” value is reported as 1.02.
